According to paper PMC5006034 (Scientific Reports, 2016):

Target: T1, hP2X2R (Homo sapiens, UniProt Q9UBL9)
T1 construct: gene P2RX2
T1 sequence (Q9UBL9 1-471): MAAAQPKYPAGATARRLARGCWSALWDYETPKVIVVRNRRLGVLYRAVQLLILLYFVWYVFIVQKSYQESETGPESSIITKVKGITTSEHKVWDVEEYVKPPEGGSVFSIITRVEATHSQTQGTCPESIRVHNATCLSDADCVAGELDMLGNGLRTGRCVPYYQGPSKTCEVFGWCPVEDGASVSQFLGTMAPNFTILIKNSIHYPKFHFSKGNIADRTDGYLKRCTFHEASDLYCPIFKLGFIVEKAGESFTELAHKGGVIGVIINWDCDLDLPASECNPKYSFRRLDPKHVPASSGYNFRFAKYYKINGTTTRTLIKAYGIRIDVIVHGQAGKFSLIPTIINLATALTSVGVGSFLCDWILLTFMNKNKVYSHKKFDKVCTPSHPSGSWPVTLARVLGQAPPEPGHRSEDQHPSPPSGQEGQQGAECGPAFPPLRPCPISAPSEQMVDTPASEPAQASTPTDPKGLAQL
Assay: Ca2+ imaging in cells expressing hP2X2R (outsourced selectivity assay)
Assay type: cell-based

Q: With `O=C1CC(=O)N(c2cccc(-c3noc(=S)[nH]3)c2)c2ccc3ccccc3c2N1` [NP-1815-PX, 5-[3-(5-thioxo-4H-[1,2,4]oxadiazol-3-yl)phenyl]-1H-naphtho[1,2-b][1,4]diazepine-2,4(3H,5H)-dione] as the compound, how does the IC50 read?
A: Its IC50 is 7.3 µM.
